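Protocol summary: plate cells (96-well), add compound at 5 concentrations, incubate 48 h, interpolate endpoints linearly. GI50 marks 50% less growth. TGI: concentration producing complete growth inhibition.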
How the values were obtained:
Experiment in all cases: NCI-60 cell line screen, 48 h
SF-295 CNS = test system: SF-295 CNS
MOLT-4 leukemia = test system: MOLT-4 leukemia
CAKI-1 renal = test system: CAKI-1 renal
SNB-75 CNS = test system: SNB-75 CNS
HCT-15 colon = test system: HCT-15 colon
OVCAR-3 ovarian = test system: OVCAR-3 ovarian
COLO 205 colon = test system: COLO 205 colon
HOP-92 NSCLC = test system: HOP-92 NSCLC
NCI-H23 lung = test system: NCI-H23 lung
SNB-19 CNS = test system: SNB-19 CNS
TK-10 renal = test system: TK-10 renal
U251 CNS = test system: U251 CNS
SR leukemia = test system: SR leukemia
DU-145 prostate = test system: DU-145 prostate
MCF7 breast = test system: MCF7 breast
MALME-3M melanoma = test system: MALME-3M melanoma
OVCAR-8 ovarian = test system: OVCAR-8 ovarian
T-47D breast = test system: T-47D breast
SK-MEL-28 melanoma = test system: SK-MEL-28 melanoma
HS 578T breast = test system: HS 578T breast
786-0 renal = test system: 786-0 renal
NCI/ADR-RES ovarian = test system: NCI/ADR-RES ovarian
ACHN renal = test system: ACHN renal
NCI-H460 lung = test system: NCI-H460 lung
SK-OV-3 ovarian = test system: SK-OV-3 ovarian
M14 melanoma = test system: M14 melanoma
OVCAR-5 ovarian = test system: OVCAR-5 ovarian
HOP-62 NSCLC = test system: HOP-62 NSCLC
A498 renal = test system: A498 renal
NCI-H522 lung = test system: NCI-H522 lung
A549 NSCLC = test system: A549 NSCLC
MDA-MB-231 breast = test system: MDA-MB-231 breast
HCT-116 colon = test system: HCT-116 colon
LOX IMVI melanoma = test system: LOX IMVI melanoma
RXF 393 renal = test system: RXF 393 renal
PC-3 prostate = test system: PC-3 prostate
KM12 colon = test system: KM12 colon
SW-620 colon = test system: SW-620 colon
SF-539 CNS = test system: SF-539 CNS
SN12C renal = test system: SN12C renal
MDA-MB-435 = test system: MDA-MB-435
RPMI-8226 leukemia = test system: RPMI-8226 leukemia
SK-MEL-2 melanoma = test system: SK-MEL-2 melanoma
EKVX NSCLC = test system: EKVX NSCLC
CCRF-CEM leukemia = test system: CCRF-CEM leukemia
HL-60(TB) leukemia = test system: HL-60(TB) leukemia
NCI-H226 lung = test system: NCI-H226 lung
SF-268 CNS = test system: SF-268 CNS
UO-31 renal = test system: UO-31 renal
OVCAR-4 ovarian = test system: OVCAR-4 ovarian
UACC-257 melanoma = test system: UACC-257 melanoma
K-562 leukemia = test system: K-562 leukemia
UACC-62 melanoma = test system: UACC-62 melanoma
HT29 colon = test system: HT29 colon
SK-MEL-5 melanoma = test system: SK-MEL-5 melanoma
IGROV1 ovarian = test system: IGROV1 ovarian
HCC-2998 colon = test system: HCC-2998 colon

Which GI50 (SF-295 CNS) does the source give for `CC[C@@H](C)/C=C(C)/C=C/C(=O)c1c(O)c(-c2ccc(OC(=O)[C@@]34CC[C@@](C)(C(=O)O3)C4(C)C)cc2)cn(O)c1=O` here?
The GI50 was 1.99 µM.

And the TGI (SF-295 CNS)?
Its TGI is 26.9 µM.

What about the GI50 (MOLT-4 leukemia) of the same molecule?
The GI50 was 1.04 µM.

And the TGI (MOLT-4 leukemia)?
Its TGI is greater than 50 µM.

And the GI50 (CAKI-1 renal)?
Its GI50 is 1.6 µM.

And the TGI (CAKI-1 renal)?
Its TGI is 11.9 µM.

What about the GI50 (SNB-75 CNS) of the same molecule?
Its GI50 is 4.34 µM.

What about the TGI (SNB-75 CNS) of the same molecule?
Its TGI is greater than 50 µM.

And the GI50 (HCT-15 colon)?
Its GI50 is 1.17 µM.

And the TGI (HCT-15 colon)?
The TGI was greater than 50 µM.

And the GI50 (OVCAR-3 ovarian)?
Its GI50 is 1.04 µM.

And the TGI (OVCAR-3 ovarian)?
Its TGI is greater than 50 µM.

And the GI50 (COLO 205 colon)?
The GI50 was 15.2 µM.

And the TGI (COLO 205 colon)?
The TGI was greater than 50 µM.

And the GI50 (HOP-92 NSCLC)?
Its GI50 is 2.84 µM.

What about the TGI (HOP-92 NSCLC) of the same molecule?
Its TGI is greater than 50 µM.

What about the GI50 (NCI-H23 lung) of the same molecule?
Its GI50 is 2.41 µM.

What about the TGI (NCI-H23 lung) of the same molecule?
The TGI was greater than 50 µM.

And the GI50 (SNB-19 CNS)?
Its GI50 is 2.66 µM.

And the TGI (SNB-19 CNS)?
The TGI was greater than 50 µM.

What about the GI50 (TK-10 renal) of the same molecule?
Its GI50 is 1.99 µM.

And the TGI (TK-10 renal)?
Its TGI is greater than 50 µM.

And the GI50 (U251 CNS)?
The GI50 was 1.64 µM.

What about the TGI (U251 CNS) of the same molecule?
Its TGI is greater than 50 µM.

And the GI50 (SR leukemia)?
Its GI50 is 1.32 µM.

And the TGI (SR leukemia)?
The TGI was 7.4 µM.

What about the GI50 (DU-145 prostate) of the same molecule?
The GI50 was 0.839 µM.

And the TGI (DU-145 prostate)?
The TGI was greater than 50 µM.

And the GI50 (MCF7 breast)?
The GI50 was 1.82 µM.

What about the TGI (MCF7 breast) of the same molecule?
Its TGI is greater than 50 µM.

And the GI50 (MALME-3M melanoma)?
The GI50 was 1.5 µM.

What about the TGI (MALME-3M melanoma) of the same molecule?
The TGI was greater than 50 µM.

And the GI50 (OVCAR-8 ovarian)?
The GI50 was 1.76 µM.

And the TGI (OVCAR-8 ovarian)?
The TGI was greater than 50 µM.

And the GI50 (T-47D breast)?
Its GI50 is 1.94 µM.

What about the TGI (T-47D breast) of the same molecule?
The TGI was greater than 50 µM.

What about the GI50 (SK-MEL-28 melanoma) of the same molecule?
The GI50 was 2.51 µM.

What about the TGI (SK-MEL-28 melanoma) of the same molecule?
The TGI was greater than 50 µM.

And the GI50 (HS 578T breast)?
The GI50 was 3.33 µM.

What about the TGI (HS 578T breast) of the same molecule?
Its TGI is greater than 50 µM.

What about the GI50 (786-0 renal) of the same molecule?
The GI50 was 1.55 µM.

And the TGI (786-0 renal)?
The TGI was 4.98 µM.

What about the GI50 (NCI/ADR-RES ovarian) of the same molecule?
The GI50 was 1.46 µM.

What about the TGI (NCI/ADR-RES ovarian) of the same molecule?
The TGI was 10 µM.

And the GI50 (ACHN renal)?
Its GI50 is 1.32 µM.

What about the TGI (ACHN renal) of the same molecule?
Its TGI is 11.6 µM.

And the GI50 (NCI-H460 lung)?
Its GI50 is 1.28 µM.

What about the TGI (NCI-H460 lung) of the same molecule?
Its TGI is 7.56 µM.

And the GI50 (SK-OV-3 ovarian)?
The GI50 was 7.48 µM.

And the TGI (SK-OV-3 ovarian)?
Its TGI is greater than 50 µM.

What about the GI50 (M14 melanoma) of the same molecule?
Its GI50 is 1.06 µM.

What about the TGI (M14 melanoma) of the same molecule?
Its TGI is 2.49 µM.

What about the GI50 (OVCAR-5 ovarian) of the same molecule?
Its GI50 is 2.79 µM.

And the TGI (OVCAR-5 ovarian)?
The TGI was greater than 50 µM.

What about the GI50 (HOP-62 NSCLC) of the same molecule?
The GI50 was 2.05 µM.

What about the TGI (HOP-62 NSCLC) of the same molecule?
The TGI was greater than 50 µM.

What about the GI50 (A498 renal) of the same molecule?
Its GI50 is 5.6 µM.

And the TGI (A498 renal)?
Its TGI is greater than 50 µM.

And the GI50 (NCI-H522 lung)?
The GI50 was 1.73 µM.

And the TGI (NCI-H522 lung)?
Its TGI is greater than 50 µM.

What about the GI50 (A549 NSCLC) of the same molecule?
Its GI50 is 4.27 µM.

What about the TGI (A549 NSCLC) of the same molecule?
Its TGI is greater than 50 µM.

What about the GI50 (MDA-MB-231 breast) of the same molecule?
The GI50 was 1.83 µM.

And the TGI (MDA-MB-231 breast)?
The TGI was greater than 50 µM.

And the GI50 (HCT-116 colon)?
The GI50 was 1.47 µM.

And the TGI (HCT-116 colon)?
Its TGI is greater than 50 µM.

What about the GI50 (LOX IMVI melanoma) of the same molecule?
The GI50 was 0.961 µM.

And the TGI (LOX IMVI melanoma)?
Its TGI is greater than 50 µM.

And the GI50 (RXF 393 renal)?
The GI50 was 1.81 µM.

What about the TGI (RXF 393 renal) of the same molecule?
The TGI was greater than 50 µM.

And the GI50 (PC-3 prostate)?
The GI50 was 20.4 µM.

And the TGI (PC-3 prostate)?
Its TGI is greater than 50 µM.

What about the GI50 (KM12 colon) of the same molecule?
Its GI50 is 3.85 µM.

What about the TGI (KM12 colon) of the same molecule?
Its TGI is greater than 50 µM.

And the GI50 (SW-620 colon)?
The GI50 was 2.43 µM.

And the TGI (SW-620 colon)?
The TGI was greater than 50 µM.

What about the GI50 (SF-539 CNS) of the same molecule?
The GI50 was 1.3 µM.

What about the TGI (SF-539 CNS) of the same molecule?
Its TGI is 6.1 µM.

What about the GI50 (SN12C renal) of the same molecule?
The GI50 was 2.47 µM.

And the TGI (SN12C renal)?
The TGI was greater than 50 µM.

What about the GI50 (MDA-MB-435) of the same molecule?
The GI50 was 2.46 µM.

And the TGI (MDA-MB-435)?
The TGI was greater than 50 µM.

What about the GI50 (RPMI-8226 leukemia) of the same molecule?
Its GI50 is 2.49 µM.

What about the TGI (RPMI-8226 leukemia) of the same molecule?
The TGI was greater than 50 µM.

What about the GI50 (SK-MEL-2 melanoma) of the same molecule?
The GI50 was 15.6 µM.

What about the TGI (SK-MEL-2 melanoma) of the same molecule?
The TGI was greater than 50 µM.

And the GI50 (EKVX NSCLC)?
The GI50 was 2.81 µM.

And the TGI (EKVX NSCLC)?
The TGI was greater than 50 µM.

What about the GI50 (CCRF-CEM leukemia) of the same molecule?
The GI50 was 1.12 µM.

What about the TGI (CCRF-CEM leukemia) of the same molecule?
Its TGI is greater than 50 µM.

What about the GI50 (HL-60(TB) leukemia) of the same molecule?
Its GI50 is 0.841 µM.

And the TGI (HL-60(TB) leukemia)?
Its TGI is 2.4 µM.

What about the GI50 (NCI-H226 lung) of the same molecule?
The GI50 was 1.39 µM.

And the TGI (NCI-H226 lung)?
The TGI was greater than 50 µM.

And the GI50 (SF-268 CNS)?
Its GI50 is 0.888 µM.

What about the TGI (SF-268 CNS) of the same molecule?
The TGI was 6.6 µM.

And the GI50 (UO-31 renal)?
The GI50 was 1.32 µM.

What about the TGI (UO-31 renal) of the same molecule?
The TGI was 7.89 µM.

And the GI50 (OVCAR-4 ovarian)?
The GI50 was 1.23 µM.

What about the TGI (OVCAR-4 ovarian) of the same molecule?
The TGI was greater than 50 µM.

What about the GI50 (UACC-257 melanoma) of the same molecule?
Its GI50 is 1.8 µM.

What about the TGI (UACC-257 melanoma) of the same molecule?
Its TGI is 36 µM.

And the GI50 (K-562 leukemia)?
The GI50 was 1.57 µM.

And the TGI (K-562 leukemia)?
The TGI was greater than 50 µM.

What about the GI50 (UACC-62 melanoma) of the same molecule?
The GI50 was 1.16 µM.

And the TGI (UACC-62 melanoma)?
The TGI was 2.7 µM.

What about the GI50 (HT29 colon) of the same molecule?
The GI50 was 21.2 µM.

What about the TGI (HT29 colon) of the same molecule?
Its TGI is greater than 50 µM.

And the GI50 (SK-MEL-5 melanoma)?
The GI50 was 1.4 µM.

And the TGI (SK-MEL-5 melanoma)?
The TGI was 4.63 µM.

And the GI50 (IGROV1 ovarian)?
Its GI50 is 1.72 µM.

What about the TGI (IGROV1 ovarian) of the same molecule?
The TGI was 41.4 µM.

What about the GI50 (HCC-2998 colon) of the same molecule?
Its GI50 is 3.65 µM.

What about the TGI (HCC-2998 colon) of the same molecule?
Its TGI is greater than 50 µM.

— PubChem BioAssay (NCI)
